The mark [1] stands for this setting: reversed phase HPLC column, pH 2.7.
The mark [2] stands for this setting: method [a]: pH 2.7, 0.1% formic acid in water/acetonitrile, Table 1, formula (I).
Setting [3] is: method [a]: pH 2.7, Table 3, formula (V).
[4] abbreviates: method [b]: pH 7.8, Table 3, formula (V).
[5] abbreviates: method [a]: pH 2.7, Table 4, formula (XII).

Each structure is given as a SMILES string. Read-outs that look alike come from different tables or passages of the source. Marks after values point to notes of the source that are not given here.

As a reminder, the chromatographic logP is lipophilicity estimated from chromatographic retention. A higher chromatographic logP goes with a more lipophilic compound. As usually defined, the LogP is the decadic logarithm of the partition coefficient of the neutral form, usually between octanol and water.

For `OC(Cc1ccncc1Cl)(Cn1nc[nH]c1=S)C1(Cl)CC1` (stereo not drawn) [Example I-3, 2-[2-(1-chlorocyclopropyl)-3-(3-chloropyridin-4-yl)-2-hydroxypropyl]-2,4-dihydro-3H-1,2,4-triazole-3-thione], the chromatographic logP in “physchem” (setting [1]) was 2.01.
Turning to `CCCCc1nc2ccccc2cc1CC(O)(Cn1ncnc1S)C(C)(C)C` (stereo not drawn) [Example I-6], under “pH 2.7”, the LogP was 1.88^[a].
Regarding `OC(Cc1ccc2ccccc2n1)(Cn1ncnc1S)C1(Cl)CC1` (stereo not drawn) [Example I-7], under setting [2], the LogP is 1.60^[a].
For `OC(Cc1cc(Cl)nc(Cl)c1)(Cn1ncnc1S)C1(Cl)CC1` (stereo not drawn) [Example I-8], the LogP under setting [2] was 3.10^[a].
`CC(C)(C)C(O)(Cc1ccnc2ccccc12)Cn1ncnc1S` (stereo not drawn) [Example I-9]: the LogP (pH 2.7) is 1.59^[a].
For the compound `CC(C)(C)C(O)(Cc1cc(Cl)cc(Cl)n1)Cn1ncnc1S` (stereo not drawn) [Example I-10], the LogP (pH 2.7) is 3.07^[a].
Regarding `OC(Cc1ccnc2ccccc12)(Cn1ncnc1S)C1(Cl)CC1` (stereo not drawn) [Example I-12], where the note is “pH 2.7”, the LogP was 1.37^[a].
`CC(C)(C)C(O)(Cc1ccc(Cl)c(Cl)n1)Cn1ncnc1S` (stereo not drawn) [Example I-14]: the LogP (pH 2.7) is 3.00^[a].
Still for that read-out and setting: the figure for `CC1(C(O)(Cc2cccnc2Cl)Cn2ncnc2S)CC1` (stereo not drawn) [Example I-15] is 2.14^[a]; for `CC1(C(O)(Cc2ccncc2Cl)Cn2ncnc2S)CC1` (stereo not drawn) [Example I-16] it is 1.96^[a].
On the same count and under the same terms, the value for `CC(C)(C)C(O)(Cc1ccncc1F)Cn1ncnc1S` (stereo not drawn) [Example I-18] was 1.79^[a].
Still for that read-out and setting: the value for `OC(Cc1ccncc1F)(Cn1ncnc1S)C1(Cl)CC1` (stereo not drawn) [Example I-19] was 1.65^[a].
As to `CCC(C)(C)C(O)(Cc1ccncc1Cl)Cn1ncnc1S` (stereo not drawn) [Example I-20], for the setting “pH 2.7”, the LogP was 2.50^[a].
For `OC(Cc1ccncc1F)(Cn1ncnc1S)C1(F)CC1` (stereo not drawn) [Example I-21], where the note is “pH 2.7”, the LogP was 1.29^[a].
Consider `CC(CF)(CF)C(O)(Cc1ccncc1F)Cn1ncnc1S` (stereo not drawn) [Example I-22], for which the LogP (pH 2.7) is 1.58^[a].
As for `O=C(Cc1cccnc1Cl)C1(Cl)CC1` [Example V-3, 1-(1-chlorocyclopropyl)-2-(2-chloropyridin-3-yl)ethanone], the chromatographic logP in the data set “physchem” (pH 2.7) was 2.2; in “physchem” (pH 7.8), 2.21.
For `O=C(Cc1ccc(Cl)nc1)C1(Cl)CC1` [Example V-6], the LogP worked out at 2.34 under setting [3] and 2.30 under setting [4].
Consider `CC(C)(C)C(=O)Cc1ncc(Cl)cc1Cl` [Example V-13], for which the LogP under setting [3] was 3.33^[a].
Turning to `CC(C)(C)C(=O)Cc1cnc2ccccc2c1` [Example V-14], the LogP under setting [3] was 1.60^[a].
`CC(C)(C)C(=O)Cc1ccc(Cl)nc1` [Example V-15]: under setting [3], the LogP is 2.47^[a].
Turning to `CC(C)(C)C(=O)Cc1cccnc1Cl` [Example V-16], the log partition coefficient (LogP) under setting [3] was 2.34^[a].
The same measure, in the same setting: the figure for `CCC(C)(CC)C(=O)Cc1ccncc1Cl` [Example V-17] is 3.04^[a].
For the compound `CC(C)C(C)(C)C(=O)Cc1ccncc1Cl` [Example V-18], the LogP under setting [3] was 3.00^[a].
In turn, `CC(C)(C)C(=O)Cc1cccnc1` [Example V-19] yielded a LogP under setting [3] of 0.41 and a LogP under setting [4] of 1.71.
Consider `CC(C)(C)C(=O)Cc1ccncc1` [Example V-20], for which the LogP is, setting by setting: under setting [3], 0.35; under setting [4], 1.75.
`O=C(Cc1cccnc1Cl)C(CF)(CF)CF` [Example V-25]: under setting [3], the lipophilicity (LogP) is 1.98^[a].
As to `CC(C)(C)C1(Cc2ncc(Cl)cc2Cl)CO1` (stereo not drawn) [XII-6], under setting [5], the LogP was 4.06^[a].
For `CC(C)(C)C1(Cc2cnc3ccccc3c2)CO1` (stereo not drawn) [XII-7], under setting [5], the LogP was 1.86^[a].
For the compound `CC(C)(C)C1(Cc2cccnc2Cl)CO1` (stereo not drawn) [XII-9], the LogP under setting [5] worked out at 2.97 and the LogP (method [b]: pH 7.8, Table 4, formula (XII)) amounted to 2.96.
In the case of `CC(C)(C)C1(Cc2ccncc2Cl)CO1` (stereo not drawn) [XII-10], the LogP under setting [5] is 2.80^[a].
Regarding `CC(C)(C)C1(Cc2ccncc2F)CO1` (stereo not drawn) [XII-12], the LogP under setting [5] is 2.31^[a].
On the same count and under the same terms, the figure for `CCC(C)(C)C1(Cc2ccncc2F)CO1` (stereo not drawn) [XII-15] is 2.76^[a]; for `CC(C)C(C)(C)C1(Cc2ccncc2F)CO1` (stereo not drawn) [XII-17] it is 3.19^[a].
`CCC(C)(C)C1(Cc2ccnc(Cl)c2)CO1` (stereo not drawn) [XII-18]: the LogP under setting [5] is 3.51^[a].
On the same count and under the same terms, the figure for `CC(C)C(C)(C)C1(Cc2ccnc(Cl)c2)CO1` (stereo not drawn) [XII-21] is 3.94^[a]; for `CC(C)(C)C1(Cc2ccnc(Cl)c2)CO1` (stereo not drawn) [XII-22] it is 3.06^[a]; for `CC(C)C(C)(C)C1(Cc2cc(Cl)ncc2F)CO1` (stereo not drawn) [XII-24] it is 4.34^[a].
On to `CCC(C)(C)C1(Cc2cc(Cl)ncc2F)CO1` (stereo not drawn) [XII-27], for which, under setting [5], the LogP is 3.89^[a].
For the compound `CC(C)(C)C1(Cc2cc(Cl)ncc2F)CO1` (stereo not drawn) [XII-28], the LogP under setting [5] was 3.42^[a].
Same read-out and setting: the value for `CC(C)C(C)(C)C1(Cc2ccncc2Cl)CO1` (stereo not drawn) [XII-30] was 3.75^[a]; that for `CCC(C)(C)C1(Cc2ccncc2Cl)CO1` (stereo not drawn) [XII-34] was 3.33^[a]; that for `CC(C)(C)C1(Cc2cc(F)ncc2Cl)CO1` (stereo not drawn) [XII-38] was 3.65^[a].
Regarding `CCC(C)(C)C1(Cc2cc(F)ncc2Cl)CO1` (stereo not drawn) [XII-40], under setting [5], the LogP is 4.17^[a].
With `CC(C)(C)C1(Cc2ccnc(Cl)c2F)CO1` (stereo not drawn) [XII-46], the LogP under setting [5] is 3.37^[a].
Still for that read-out and setting: the value for `CC(C)(C)C1(Cc2c(Cl)cncc2Cl)CO1` (stereo not drawn) [XII-52] was 3.89^[a]; that for `CCC(C)(C)C1(Cc2c(Cl)cncc2Cl)CO1` (stereo not drawn) [XII-54] was 4.41^[a]; that for `CCCC(C)(C)C1(Cc2ccncc2Cl)CO1` (stereo not drawn) [XII-57] was 2.03^[a].
Take `OC(CCl)(Cc1cc(Cl)nc(Cl)c1)C1(Cl)CC1` (stereo not drawn) [XV-1]: the LogP (pH 2.7) is 3.85^[a].
For `OC(Cc1ccncc1Cl)(Cn1cncn1)C1(Cl)CC1` (stereo not drawn) [XXI-5, 2-(1-chlorocyclopropyl)-1-(3-chloropyridin-4-yl)-3-(1H-1,2,4-triazol-1-yl)propan-2-ol], the chromatographic logP is 1.67 in “physchem” (setting [1]) and 1.75 in “physchem” (reversed phase HPLC column, pH 7.8).
`CC(C)(C)C(O)(Cc1cnc2ccccc2c1)Cn1cncn1` (stereo not drawn) [XXI-8]: the LogP (pH 2.7) was 1.18^[a].
Turning to `CC(C)(C)C(O)(Cc1ccc(Cl)nc1)Cn1cncn1` (stereo not drawn) [XXI-9], the LogP was 1.98^[a] (pH 2.7) and 1.98^[b]; (pH 7.8).
As to `CC(C)(C)C(O)(Cc1cccnc1Cl)Cn1cncn1` (stereo not drawn) [XXI-10], the LogP is 1.94^[a] (pH 2.7) and 1.90^[b]; (pH 7.8).
On to `CC(C)(C)C(O)(Cc1ccncc1Cl)Cn1cncn1` (stereo not drawn) [XXI-11], for which the lipophilicity (LogP) (pH 2.7) was 1.74^[a].
On the same count and under the same terms, the figure for `CCC(C)(C)C(O)(Cc1ccncc1Cl)Cn1cncn1` (stereo not drawn) [XXI-12] is 2.13^[a]; for `Cc1cc(C(O)(Cc2ccncc2Cl)Cn2cncn2)nn1C` (stereo not drawn) [XXI-71] it is 0.84^[a]; for `OC(Cc1ccc(Cl)cn1)(Cn1cncn1)C1(Cl)CC1` (stereo not drawn) [XXI-72] it is 2.23^[a].
The same measure, in the same setting: the value for `OC(CCc1ccccc1Cl)(Cc1ccncc1Cl)Cn1cncn1` (stereo not drawn) [XXI-73] was 2.29^[a]; that for `OC(CCc1ccc(Cl)cc1)(Cc1ccncc1Cl)Cn1cncn1` (stereo not drawn) [XXI-74] was 2.40^[a]; that for `CC(C)(Oc1ccc(Cl)cc1)C(O)(Cc1ccncc1Cl)Cn1cncn1` (stereo not drawn) [XXI-75] was 2.84^[a].
`OC(Cc1nccnc1Br)(Cn1cncn1)C1(Cl)CC1` (stereo not drawn) [XXI-76]: under “pH 2.7”, the log partition coefficient (LogP) is 1.96^[a].
The same measure, in the same setting: the figure for `COc1nccnc1CC(O)(Cn1cncn1)C1(Cl)CC1` (stereo not drawn) [XXI-77] is 1.88^[a]; for `OC(Cc1ccccc1F)(Cc1cc(Cl)ncc1F)Cn1cncn1` (stereo not drawn) [XXI-78] it is 2.34^[a]; for `OC(Cc1cccc(Cl)c1)(Cc1cc(Cl)ncc1F)Cn1cncn1` (stereo not drawn) [XXI-79] it is 2.69^[a].
In the case of `OC(Cc1ccc(F)cc1)(Cc1ccncc1Cl)Cn1cncn1` (stereo not drawn) [XXI-80], under “pH 2.7”, the LogP was 1.93^[a].
Turning to `CC(C)(F)C(O)(Cc1ccncc1Cl)Cn1cncn1` (stereo not drawn) [XXI-81], the LogP (pH 2.7) was 1.20^[a].
Still for that read-out and setting: the figure for `OC(Cc1ccncc1Cl)(Cn1cncn1)C1CCC1` (stereo not drawn) [XXI-82] is 1.46^[a]; for `OC(Cc1ccncc1Cl)(Cn1cncn1)C1(c2ccccc2)CC1` (stereo not drawn) [XXI-83] it is 2.23^[a]; for `OC(COc1ccc(F)cc1)(Cc1ccncc1Cl)Cn1cncn1` (stereo not drawn) [XXI-84] it is 1.86^[a].
As to `OC(Cc1ccncc1Cl)(Cn1cncn1)c1ccc2oc3ccccc3c2c1` (stereo not drawn) [XXI-85], where the note is “method [a]: pH 2.7, 0.1% formic acid in water/acetonitrile, Table 2, formula (XXI)”, the LogP was 2.40^[a].
With `OC(Cc1ccncc1C(F)(F)F)(Cn1cncn1)C1(Cl)CC1` (stereo not drawn) [XXI-86], where the note is “pH 2.7”, the LogP was 2.08^[a].
Take `OC(Cc1ccnc(Cl)c1Cl)(Cn1cncn1)C1(Cl)CC1` (stereo not drawn) [XXI-87]: the lipophilicity (LogP) (pH 2.7) is 2.39^[a].
With `OC(Cc1cc(Cl)cnc1Cl)(Cn1cncn1)C1(Cl)CC1` (stereo not drawn) [XXI-88], the LogP (pH 2.7) is 2.53^[a].
With `Cc1cccc2cc(CC(O)(Cn3cncn3)C3(Cl)CC3)c(Cl)nc12` (stereo not drawn) [XXI-89], the LogP (pH 2.7) was 3.53^[a].
`OC(Cc1ccccc1F)(Cc1ccnc(Cl)c1F)Cn1cncn1` (stereo not drawn) [XXI-90]: the LogP (pH 2.7) is 1.73^[a].
For `OC(Cc1ccnc(Cl)c1F)(Cn1cncn1)c1ccc(Cl)nc1` (stereo not drawn) [XXI-91], under “pH 2.7”, the LogP is 1.23^[a].
`OC(Cc1ccnc(Cl)c1F)(Cn1cncn1)C1(F)CC1` (stereo not drawn) [XXI-92]: where the note is “pH 2.7”, the LogP is 1.23^[a].
The same measure, in the same setting: the value for `OC(Cc1cccc(Cl)c1)(Cc1ccnc(Cl)c1F)Cn1cncn1` (stereo not drawn) [XXI-93] was 2.02^[a]; that for `OC(Cc1cc(F)ncc1Cl)(Cn1cncn1)C1(Cl)CC1` (stereo not drawn) [XXI-94] was 2.30^[a].
As to `CC(C)(CCl)C(O)(Cc1ccncc1Cl)Cn1cncn1` (stereo not drawn) [XXI-95], the lipophilicity (LogP) is, setting by setting: (pH 2.7) 1.76^[a]; (pH 7.8) 1.96^[b];.
For the compound `CC(C)(Oc1ccc(F)cc1)C(O)(Cc1ccncc1Cl)Cn1cncn1` (stereo not drawn) [XXI-96], the LogP reads like this: (pH 2.7) 2.48^[a]; (pH 7.8) 2.60^[b];.

Source of the values: patent US9550752B2, “Triazolinthione derivatives” (priority 2013, dated 2017).
